This is an account of results in patent US20220257597A1, “Methods of Administering Elagolix” (AbbVie Inc., priority 2021, published 2022).

For data set [1], the system named is CYP3A. Description: Substrate of / metabolism by CYP3A. In kind it is in vitro ADME.
Data set [2] is described as follows: Drug interaction studies: change in pharmacokinetics of elagolix in the presence of co-administered drugs. In kind it is in vivo, human. Conditions: elagolix 300 mg twice daily; rosuvastatin 20 mg once daily, sertraline 25 mg once daily or fluconazole 200 mg single dose.
A short description of data set [3]: Drug interaction studies: change in pharmacokinetics of co-administered drug in the presence of elagolix. To be noted: rosuvastatin 20 mg once daily; elagolix 300 mg twice daily x 7 days; N 10. In kind it is in vivo, human. As for the experimental part: Drug interaction studies were performed with elagolix and other drugs likely to be co-administered and with drugs commonly used as probes for pharmacokinetic interactions. Tables 8 and 9 summarize the pharmacokinetic effects when elagolix was co-administered with these drugs.

Data set [4] in a line: Drug interactions: effects of ORIAHNN on other drugs. Conditions: co-administration of ORIAHNN.
Data set [5] in a line: Drug interactions: effects of ORILISSA on other drugs. Conditions: co-administration of ORILISSA

Turning to `C[C@]12CC[C@@H]3c4ccc(O)cc4CC[C@H]3[C@@H]1CC[C@@H]2O` [estradiol], the “metabolism by CYP3A” value in data set [1] is reported as “metabolized partially by CYP3A”.
`C#C[C@]1(OC(C)=O)CC[C@H]2[C@@H]3CCC4=CC(=O)CC[C@@H]4[C@H]3CC[C@@]21C` [norethindrone acetate]: the “metabolism by CYP3A” value in data set [1] is “metabolized partially by CYP3A”.
On to `CC(C)c1nc(N(C)S(C)(=O)=O)nc(-c2ccc(F)cc2)c1/C=C/[C@@H](O)C[C@@H](O)CC(=O)O` [rosuvastatin], for which, in data set [2], the “changes in elagolix exposures when co-administered, in words” value is reported as “No clinically significant changes”. In data set [3], the “Ratio (90% CI) AUC, co-administration with elagolix vs medication alone” value turned out to be 0.60 and the “Ratio (90% CI) Cmax, co-administration with elagolix vs medication alone” value is reported as 0.99. Moreover, the “Effect on Plasma Exposure of Concomitant Drug (direction of change in AUC)” value in data set [4] is listed as “↓ rosuvastatin”. Also, the “Effect on Plasma Exposure of Concomitant Drug (direction of change in AUC)” value in data set [5] was “↓ rosuvastatin”.
